Common to all, as to format: cell-based
For assay [1], the system named is glucagon receptor, GLP-1 receptor or GIP receptor. As to the kind of experiment: Agonist profile across receptors assigned from the cAMP reporter assay data. The settings on record: assigned from the in vitro EC50 data of Tables 1-4.
Assay [2] has as its target T1, glucagon receptor (Homo sapiens, UniProt P47871).
T1 construct: expressed in transfected cells; host or cells: HEK293
The experiment in a line: cAMP synthesis functional assay (firefly luciferase reporter in HEK293 cells), glucagon receptor. The settings on record: for EC50: Glucagon Receptor EC50, cAMP luciferase reporter assay as in Example 16. In general terms: A reporter such as luciferase makes a cellular process visible.

The target of assay [3] is T2, GLP-1 receptor (Homo sapiens, UniProt P43220).
T2 construct: expressed in transfected cells; host or cells: HEK293
The experiment in a line: cAMP synthesis functional assay (firefly luciferase reporter in HEK293 cells), GLP-1 receptor. As to conditions: for EC50: GLP-1 Receptor EC50, cAMP luciferase reporter assay as in Example 16.

The target of assay [4] is T3, GIP receptor (Homo sapiens, UniProt P48546).
T3 construct: expressed in transfected cells; host or cells: HEK293
T3 sequence (P48546 22-466): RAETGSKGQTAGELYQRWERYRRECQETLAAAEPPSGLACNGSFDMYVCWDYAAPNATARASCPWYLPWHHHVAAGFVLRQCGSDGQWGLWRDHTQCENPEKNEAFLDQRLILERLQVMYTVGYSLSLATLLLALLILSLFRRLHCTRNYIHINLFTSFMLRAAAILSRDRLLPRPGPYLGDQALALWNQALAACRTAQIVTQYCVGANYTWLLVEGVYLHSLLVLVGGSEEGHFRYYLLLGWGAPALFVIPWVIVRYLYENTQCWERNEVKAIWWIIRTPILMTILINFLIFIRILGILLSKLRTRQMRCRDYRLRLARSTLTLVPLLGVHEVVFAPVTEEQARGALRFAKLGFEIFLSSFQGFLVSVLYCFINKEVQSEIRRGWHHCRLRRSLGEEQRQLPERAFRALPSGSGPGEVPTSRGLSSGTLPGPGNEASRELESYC
The experiment in a line: cAMP synthesis functional assay (firefly luciferase reporter in HEK293 cells), GIP receptor. As to conditions: for EC50: GIP Receptor EC50, cAMP luciferase reporter assay as in Example 16.

Setting [5] is: relative to the standard (Std.) EC50 of the same run.
[6] abbreviates: Table 1, relative to the native hormone of the indicated receptor.

Where a SMILES comes first, the peptide text is derived from it. [ ]: non-standard residue; d: D form. Aib = CC(C)(N)C(=O)O

As a reminder, the EC50 is the concentration that produces a half-maximal response.

T2 sequence (P43220 24-463, species assumed): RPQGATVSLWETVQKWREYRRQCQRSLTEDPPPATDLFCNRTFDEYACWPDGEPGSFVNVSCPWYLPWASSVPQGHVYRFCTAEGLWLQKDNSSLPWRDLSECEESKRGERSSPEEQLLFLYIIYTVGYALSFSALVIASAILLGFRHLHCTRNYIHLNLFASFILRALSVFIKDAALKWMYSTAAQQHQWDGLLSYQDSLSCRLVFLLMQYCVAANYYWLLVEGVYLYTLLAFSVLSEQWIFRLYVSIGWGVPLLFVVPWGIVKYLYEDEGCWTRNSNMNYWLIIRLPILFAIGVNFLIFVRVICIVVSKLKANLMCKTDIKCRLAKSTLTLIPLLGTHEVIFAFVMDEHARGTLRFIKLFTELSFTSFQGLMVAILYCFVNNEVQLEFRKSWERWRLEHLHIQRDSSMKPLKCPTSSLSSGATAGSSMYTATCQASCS
T1 sequence (P47871 26-477): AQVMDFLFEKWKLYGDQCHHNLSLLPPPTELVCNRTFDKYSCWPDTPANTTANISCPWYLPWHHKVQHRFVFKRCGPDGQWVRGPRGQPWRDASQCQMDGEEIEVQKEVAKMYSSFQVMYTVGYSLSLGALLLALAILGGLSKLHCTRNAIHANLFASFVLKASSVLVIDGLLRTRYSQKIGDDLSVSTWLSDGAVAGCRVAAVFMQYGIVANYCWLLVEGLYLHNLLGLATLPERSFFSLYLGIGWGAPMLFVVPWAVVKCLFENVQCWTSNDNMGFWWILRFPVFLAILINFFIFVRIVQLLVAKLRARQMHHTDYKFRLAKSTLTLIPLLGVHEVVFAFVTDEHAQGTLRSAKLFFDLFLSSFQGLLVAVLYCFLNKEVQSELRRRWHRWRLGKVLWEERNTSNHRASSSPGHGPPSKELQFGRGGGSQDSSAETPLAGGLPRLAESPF

With `CC[C@H](C)[C@H](NC(=O)[C@H](CO)NC(=O)[C@H](Cc1ccc(O)cc1)NC(=O)[C@H](CC(=O)O)NC(=O)[C@H](CO)NC(=O)[C@@H](NC(=O)[C@H](Cc1ccccc1)NC(=O)[C@@H](NC(=O)CNC(=O)[C@H](CCC(N)=O)NC(=O)C(C)(C)NC(=O)[C@@H](N)Cc1ccc(O)cc1)[C@@H](C)O)[C@@H](C)O)C(=O)N[C@@H](Cc1ccc(O)cc1)C(=O)N[C@@H](CC(C)C)C(=O)N[C@@H](CC(=O)O)C(=O)N[C@@H](CCC(=O)O)C(=O)N[C@@H](CCC(N)=O)C(=O)N[C@@H](C)C(=O)N[C@@H](C)C(=O)NC(C)(C)C(=O)N[C@@H](CCC(=O)O)C(=O)N[C@@H](Cc1ccccc1)C(=O)N[C@H](C(=O)N[C@@H](CS)C(=O)N[C@@H](Cc1c[nH]c2ccccc12)C(=O)N[C@@H](CC(C)C)C(=O)N[C@@H](CC(C)C)C(=O)N[C@@H](C)C(=O)NCC(N)=O)C(C)C` [mt-258] (H-Y[Aib]QGTFTSDYSIYLDEQAA[Aib]EFVCWLLAG-NH2; N-terminus assumed), the “receptor activity profile (glucagon / GLP-1 / GIP agonism)” value in assay [1] is “exhibited activities of glucagon/GLP-1/GIP triagonists”. Moreover, in assay [2] (Table 2), the “Glucagon Receptor relative activity” value was 14.08%. The “GLP-1 Receptor relative activity” value in assay [3] (Table 2) came out at 58.91%. In assay [4] (Table 2), the “GIP Receptor relative activity” value amounted to 16.84%.

With `CCCCCCCCCCCCCC(=O)NCCCC[C@H](NC(=O)[C@@H](NC(=O)[C@H](Cc1ccccc1)NC(=O)[C@H](CCC(=O)O)NC(=O)C(C)(C)NC(=O)[C@H](C)NC(=O)[C@H](C)NC(=O)[C@H](CCC(N)=O)NC(=O)[C@H](CCCCN)NC(=O)[C@H](CC(=O)O)NC(=O)[C@H](CC(C)C)NC(=O)[C@H](Cc1ccc(O)cc1)NC(=O)[C@@H](NC(=O)[C@H](CO)NC(=O)[C@H](Cc1ccc(O)cc1)NC(=O)[C@H](CC(=O)O)NC(=O)[C@H](CO)NC(=O)[C@@H](NC(=O)[C@H](Cc1ccccc1)NC(=O)[C@@H](NC(=O)CNC(=O)[C@H](CCC(=O)O)NC(=O)C(C)(C)NC(=O)[C@@H](N)Cc1ccc(O)cc1)[C@@H](C)O)[C@@H](C)O)[C@@H](C)CC)C(C)C)C(=O)N[C@@H](Cc1c[nH]c2ccccc12)C(=O)N[C@@H](CC(C)C)C(=O)N[C@@H](CC(C)C)C(=O)N[C@@H](C)C(=O)NCC(=O)NCC(=O)N1CCC[C@H]1C(=O)N[C@@H](CO)C(=O)N[C@@H](CO)C(=O)NCC(=O)N[C@@H](C)C(=O)N1CCC[C@H]1C(=O)N1CCC[C@H]1C(=O)N1CCC[C@H]1C(=O)N[C@@H](CO)C(N)=O` [mt-265], the “receptor activity profile (glucagon / GLP-1 / GIP agonism)” value in assay [1] is “exhibited activity at the GIP, GLP-1, and glucagon receptors”. For the same compound, the EC50 in assay [2] was 6.43 nM; in assay [3], 0.993 nM; in assay [4], 0.0624 nM. In assay [2] (setting [5]), the “Glucagon Receptor relative activity” value was 0.68%. In addition, in assay [3] (setting [5]), the “GLP-1 Receptor relative activity” value is 1.77%. Moreover, in assay [4] (setting [5]), the “GIP Receptor relative activity” value was determined as 13.62%.

Turning to `CCCCCCCCCCCCCCCCCC(=O)NCCCC[C@H](NC(=O)[C@H](CO)NC(=O)[C@@H]1CCCN1C(=O)[C@@H]1CCCN1C(=O)[C@@H]1CCCN1C(=O)[C@H](C)NC(=O)CNC(=O)[C@H](CO)NC(=O)[C@H](CO)NC(=O)[C@@H]1CCCN1C(=O)CNC(=O)CNC(=O)[C@H](C)NC(=O)[C@H](CC(C)C)NC(=O)[C@H](CC(C)C)NC(=O)[C@H](Cc1c[nH]c2ccccc12)NC(=O)[C@H](CS)NC(=O)[C@@H](NC(=O)[C@H](Cc1ccccc1)NC(=O)[C@H](CCC(=O)O)NC(=O)C(C)(C)NC(=O)[C@H](C)NC(=O)[C@H](C)NC(=O)[C@H](CCC(N)=O)NC(=O)[C@H](CCCCN)NC(=O)[C@H](CC(=O)O)NC(=O)[C@H](CC(C)C)NC(=O)[C@H](Cc1ccc(O)cc1)NC(=O)[C@@H](NC(=O)[C@H](CO)NC(=O)[C@H](Cc1ccc(O)cc1)NC(=O)[C@H](CC(=O)O)NC(=O)[C@H](CO)NC(=O)[C@@H](NC(=O)[C@H](Cc1ccccc1)NC(=O)[C@@H](NC(=O)CNC(=O)[C@H](CCC(N)=O)NC(=O)C(C)(C)NC(=O)[C@@H](N)Cc1ccc(O)cc1)[C@@H](C)O)[C@@H](C)O)[C@@H](C)CC)C(C)C)C(N)=O` [mt-288], the “receptor activity profile (glucagon / GLP-1 / GIP agonism)” value in assay [1] is “exhibited activity at the GIP, GLP-1, and glucagon receptors”. Besides, the EC50 was 0.0207 nM in assay [2], 0.0138 nM in assay [3] and 0.0137 nM in assay [4]. In addition, the “Glucagon Receptor relative activity” value in assay [2] (setting [5]) was found to be 250.72%. Further, the “GLP-1 Receptor relative activity” value in assay [3] (setting [5]) is recorded as 84.78%. Besides, the “GIP Receptor relative activity” value in assay [4] (setting [5]) is listed as 79.56%.

As for `CC[C@H](C)[C@H](NC(=O)[C@H](CO)NC(=O)[C@H](Cc1ccc(O)cc1)NC(=O)[C@H](CC(=O)O)NC(=O)[C@H](CO)NC(=O)[C@@H](NC(=O)[C@H](Cc1ccccc1)NC(=O)[C@@H](NC(=O)CNC(=O)[C@H](CCC(N)=O)NC(=O)C(C)(C)NC(=O)[C@@H](N)Cc1ccc(O)cc1)[C@@H](C)O)[C@@H](C)CC)C(=O)N[C@@H](Cc1ccc(O)cc1)C(=O)N[C@@H](CC(C)C)C(=O)N[C@@H](CC(=O)O)C(=O)N[C@H]1CCC(=O)NCCCC[C@@H](C(=O)N[C@@H](CCC(=O)O)C(=O)N[C@@H](Cc2ccccc2)C(=O)N[C@H](C(=O)N[C@@H](CC(N)=O)C(=O)N[C@@H](Cc2c[nH]c3ccccc23)C(=O)N[C@@H](CC(C)C)C(=O)N[C@@H](CC(C)C)C(=O)N[C@@H](C)C(=O)NCC(=O)NCC(=O)N2CCC[C@H]2C(=O)N[C@@H](CO)C(=O)N[C@@H](CO)C(=O)NCC(=O)N[C@@H](C)C(=O)N2CCC[C@H]2C(=O)N2CCC[C@H]2C(=O)N2CCC[C@H]2C(=O)N[C@@H](CO)C(=O)N[C@@H](CS)C(N)=O)C(C)C)NC(=O)[C@H](C)NC(=O)[C@H](C)NC(=O)[C@H](CCC(N)=O)NC1=O` [mt-176], the “receptor activity profile (glucagon / GLP-1 / GIP agonism)” value in assay [1] is “exemplary GIP/glucagon co-agonist peptides”. Besides, the “Glucagon Receptor relative activity” value in assay [2] (setting [6]) was found to be 26.24%. For the same compound, in assay [3] (setting [6]), the “GLP-1 Receptor relative activity” value is reported as 0.23%. Further, in assay [4] (setting [6]), the “GIP Receptor relative activity” value is 40.00%.

As to `CC[C@H](C)[C@H](NC(=O)[C@H](CO)NC(=O)[C@H](Cc1ccc(O)cc1)NC(=O)[C@H](CC(=O)O)NC(=O)[C@H](CO)NC(=O)[C@@H](NC(=O)[C@H](Cc1ccccc1)NC(=O)[C@@H](NC(=O)CNC(=O)[C@H](CCC(N)=O)NC(=O)C(C)(C)NC(=O)[C@@H](N)Cc1ccc(O)cc1)[C@@H](C)O)[C@@H](C)O)C(=O)N[C@@H](Cc1ccc(O)cc1)C(=O)N[C@@H](CC(C)C)C(=O)N[C@@H](CC(=O)O)C(=O)N[C@@H](CCCCN)C(=O)N[C@@H](CCC(N)=O)C(=O)N[C@@H](C)C(=O)N[C@@H](C)C(=O)NC(C)(C)C(=O)N[C@@H](CCC(=O)O)C(=O)N[C@@H](Cc1ccccc1)C(=O)N[C@H](C(=O)N[C@@H](CS)C(=O)N[C@@H](Cc1c[nH]c2ccccc12)C(=O)N[C@@H](CC(C)C)C(=O)N[C@@H](CC(C)C)C(=O)N[C@@H](C)C(=O)NCC(=O)NCC(=O)N1CCC[C@H]1C(=O)N[C@@H](CO)C(=O)N[C@@H](CO)C(=O)NCC(=O)N[C@@H](C)C(=O)N1CCC[C@H]1C(=O)N1CCC[C@H]1C(=O)N1CCC[C@H]1C(=O)N[C@@H](CO)C(=O)N[C@@H](CCCCN)C(N)=O)C(C)C` [mt-289], in assay [1], the “receptor activity profile (glucagon / GLP-1 / GIP agonism)” value is “exhibited activity at the GIP, GLP-1, and glucagon receptors”. The values for the EC50 in assay [2], in assay [3] and in assay [4] were 0.0766 nM, 0.0144 nM and 0.0234 nM, respectively. Besides, the “Glucagon Receptor relative activity” value in assay [2] (setting [5]) was 67.75%. In addition, the “GLP-1 Receptor relative activity” value in assay [3] (setting [5]) was determined as 81.25%. The “GIP Receptor relative activity” value in assay [4] (setting [5]) was found to be 46.58%.

As to `CC[C@H](C)[C@H](NC(=O)[C@H](CO)NC(=O)[C@H](Cc1ccc(O)cc1)NC(=O)[C@H](CC(=O)O)NC(=O)[C@H](CO)NC(=O)[C@@H](NC(=O)[C@H](Cc1ccccc1)NC(=O)[C@@H](NC(=O)CNC(=O)[C@H](CCC(N)=O)NC(=O)C(C)(C)NC(=O)[C@@H](N)Cc1ccc(O)cc1)[C@@H](C)O)[C@@H](C)O)C(=O)N[C@@H](Cc1ccc(O)cc1)C(=O)N[C@@H](CC(C)C)C(=O)N[C@@H](CC(=O)O)C(=O)NC(C)(C)C(=O)N[C@@H](CCC(N)=O)C(=O)N[C@@H](C)C(=O)N[C@@H](C)C(=O)NC(C)(C)C(=O)N[C@@H](CCC(=O)O)C(=O)N[C@@H](Cc1ccccc1)C(=O)N[C@H](C(=O)N[C@@H](CC(N)=O)C(=O)N[C@@H](Cc1c[nH]c2ccccc12)C(=O)N[C@@H](CC(C)C)C(=O)N[C@@H](CC(C)C)C(=O)N[C@@H](C)C(=O)NCC(=O)NCC(=O)N1CCC[C@H]1C(=O)N[C@@H](CO)C(=O)N[C@@H](CO)C(=O)NCC(=O)N[C@@H](C)C(=O)N1CCC[C@H]1C(=O)N1CCC[C@H]1C(=O)N1CCC[C@H]1C(=O)N[C@@H](CO)C(=O)N[C@@H](CS)C(N)=O)C(C)C` [mt-250] (H-Y[Aib]QGTFTSDYSIYLD[Aib]QAA[Aib]EFVNWLLAGGPSSGAPPPSC-NH2; N-terminus assumed), in assay [1], the “receptor activity profile (glucagon / GLP-1 / GIP agonism)” value was “exhibited activities of glucagon/GLP-1/GIP triagonists”. Further, the “Glucagon Receptor relative activity” value in assay [2] (Table 2) turned out to be 6.30%. In addition, the “GLP-1 Receptor relative activity” value in assay [3] (Table 2) is listed as 63.64%. The “GIP Receptor relative activity” value in assay [4] (Table 2) is 30.65%.

Values taken from patent publication US9062124B2, “GIP-based mixed agonists for treatment of metabolic disorders and obesity” (priority 2008, dated 2015).
